{"source": "patent US11213513B2", "about": "“Compositions and methods for promoting hair growth with Mpc1 inhibitors” (The Regents of the University of California, priority 2017, dated 2022)", "format_in_all_cases": "in vivo, mouse", "key": {"17 month old mice": {"system": "17 month old mice", "assay": "Treatment of elderly (17 month old) shaved mice, hair coat re-growth", "details": "20 uM in PLO gel every other day, up to 30 days after shaving; DMSO control patchy", "method": "17 month old mice were shaved and treated every other day with DMSO or 20 uM of the compound of formula (I) diluted in PLO gel (pluronic lecithin organogel). Images were acquired at the indicated day after shaving and carried out for 30 days."}, "HFSCs": {"system": "HFSCs", "assay": "Metabolomic analysis (LC-MS) of lactate in HFSCs sorted from topically treated skin", "excerpt": "(§1) Animals were acquired from Jackson Labs (K15-CrePR, Lgr5-CreER and Lgr6-CreER), Rutter Lab (Mpc^fl/fl) and Seth Lab (Ldha^fl/fl) (Xie, H. et al., Cell Metab., 19, 795-809 (2014)) and maintained under conditions set forth by IUCUC and ARC. For experiments that include analysis of the telogen stage of the hair cycle, animals were harvested at post-natal day 50, for telogen-anagen transition animals were harvested at day 70, and for anagen animals were harvested at post-natal day 90. For experiments that include analysis of transgenic animals, K15-CrePR animals were shaved and treated by intraperitoneal injections of mifepristone and Lgr5-CreER and Lgr6-CreER animals were shaved and treated with tamoxifen (10 mg/ml dissolved in sunflower seed oil, 2 mg per day for 3 days) during telogen (post-natal day 50), and monitored for hair regrowth following shaving. Phenotypes shown from treated animals were produced 3-4 weeks after mifepristone administration. […]\nWhole dorsal and ventral mouse skin were excised and floated on trypsin (0.25%) for 1 h at 37° C. or overnight at 4° C. […] The cells were then filtered through a […] cell strainer and stained for fluorescence-activated cell sorting (FACS) processing with CD34 Monoclonal Antibody (RAM34), FITC, eBioscience™ (Catalog #:11-0341-82) and CD49d (Integrin alpha 4) Monoclonal Antibody (R1-2), PE, eBioscience™ (Catalog #: 12-0492-81). […]"}, "[1]": {"system": "wildtype C57BL/6J animals", "assay": "Topical treatment of shaved telogen (day 50) mice, monitoring pigmentation, hair growth and hair cycle", "excerpt": "Animals were acquired from Jackson Labs (K15-CrePR, Lgr5-CreER and Lgr6-CreER), Rutter Lab (Mpc^fl/fl) and Seth Lab (Ldha^fl/fl) (Xie, H. et al., Cell Metab., 19, 795-809 (2014)) and maintained under conditions set forth by IUCUC and ARC. For experiments that include analysis of the telogen stage of the hair cycle, animals were harvested at post-natal day 50, for telogen-anagen transition animals were harvested at day 70, and for anagen animals were harvested at post-natal day 90. For experiments that include analysis of transgenic animals, K15-CrePR animals were shaved and treated by intraperitoneal injections of mifepristone and Lgr5-CreER and Lgr6-CreER animals were shaved and treated with tamoxifen (10 mg/ml dissolved in sunflower seed oil, 2 mg per day for 3 days) during telogen (post-natal day 50), and monitored for hair regrowth following shaving. Phenotypes shown from treated animals were produced 3-4 weeks after mifepristone administration. For FIG. 3, wildtype C57BL/6J animals were shaved at post-natal day 50 and treated topically with Transderma PLO Gel ([…] lecithin organogel), PLO Gel Ultramax Base (TR220) (vehicle), or the compound of formula (I) (Compound (I)) (20 μM) (Sigma Aldrich product PZ0160) for indicated periods of time. Both male and female animals were used in this study in approximately equal numbers with no apparent difference in phenotype between genders. All phenotypes described are representative of a minimum of n=3 littermate pairs as indicated in the description of each experiment. No statistical measure was used to determine the sample size beforehand, nor were statistics used to measure effects, as the results were essentially positive or negative as represented in the figures. The results described include data from all treated animals. The investigators were not blinded to allocation during the experimental data collection, nor were the experiments randomized. The results shown were representative images from at least three independently treated animals, and genotyping was performed both before and after animal treatment for confirmation.\nTissues were isolated from the indicated genotypes and embedded fresh in optimal cutting temperature (OCT) compound for frozen tissue preparations, or fixed overnight in 4% formalin and embedded in paraffin. For frozen tissue, sectioning was performed on a Leica 3200 Cryostat, and fixed for 5 minutes in 4% paraformaldehyde. Paraffin embedded tissue was sectioned, de-paraffinized, and prepared for histology. All sections prepared for staining were blocked in staining buffer containing appropriate control IgG (Goat, Rabbit etc.). Immunohistochemistry was performed on formalin-fixed paraffin-embedded tissue with citrate or Tris buffer antigen retrieval with the following antibodies: Ki67 (Abcam ab16667, 1:50), p-S6 (Cell Signaling CST2215, 1:50), Sox9 (Abcam ab185230, 1:1000), Ldha (Abcam ab47010, 1:100), Ldh (Abcam ab125683, 1:100), p-Stat3 (Abcam ab68153, 1:200), p-Stat1 (Abcam ab109461, 1:200), p-Stat5 (Abcam ab32364; 1:50), Gli3 (Abcam ab6050; 1:100), β-catenin (Abcam ab32572; 1:500). The DAKO EnVision+ HRP Peroxidase System (Dako K400911-2) and Dako AEC Substrate Chromogen (Dako K346430-2) was used for detection. Images were collected on an Olympus BX43 Upright Microscope and Zeiss Model Axio Imager M1 Upright Fluorescence Microscope. Protein samples for western blots and enzymatic assays were extracted from FACS sorted epidermal populations in RIPA lysis buffer (Pierce) with Halt protease and phosphatase inhibitors (Thermo-Fisher) and precipitated in acetone for concentration. The following antibodies were used: β-actin (Abcam ab8227; 1:1000), β-actin (Santa Cruz sc-47778; 1:1000), C-Myc (Abcam ab32072; 1:1000), N-Myc (Santa Cruz sc-53993; 1:200), H3K27Ac (Abcam ab177178; 1:200), Mpc1 (Sigma HPA045119).\nBoth male and female animals were used in this study in approximately equal numbers with no apparent difference in phenotype between genders. […]"}, "Ldh": {"system": "Ldh", "assay": "In situ Ldh enzyme activity assay in epidermis of topically treated animals", "details": "in situ stain", "excerpt": "as §1, with “administration. For FIG. 3, wildtype C57BL/6J animals were shaved at post-natal day 50 and treated topically with Transderma PLO Gel ([…] lecithin organogel), PLO Gel Ultramax Base (TR220) (vehicle), or the compound of formula (I) (Compound (I)) (20 μM) (Sigma Aldrich product PZ0160) for indicated periods of time.” for “administration.”"}, "[2]": {"details": "topical treatment of animals in telogen (day 50)"}}, "note": "“Also recorded” adds a separate entry of the source.", "data": [{"compound": "N#CC(=Cc1cn(-c2ccccc2)c2ccccc12)C(=O)O", "note": "[compound of formula (I)]", "values": [{"measurement": "hair coat re-growth in aged mice", "setting": "17 month old mice", "value": "more complete re-growth; also recorded: more complete hair growth"}, {"measurement": "lactate levels, replicate experiment", "setting": "HFSCs; 48-72 hours of treatment", "value": "increase in lactate levels"}, {"measurement": "total levels of lactate in sorted HFSCs", "setting": "HFSCs; topical application, 48 hours", "value": "increases total levels of lactate"}, {"measurement": "effect on proliferation of the interfollicular epidermis", "setting": "[1]; [2]", "value": "minor hyperproliferation of the interfollicular epidermis"}, {"measurement": "effect on the hair cycle", "setting": "[1]; [2]", "value": "robust acceleration of the hair cycle"}, {"measurement": "time of treatment to full anagen, indicated by full coat of hair", "setting": "[1]; topical, 20 μM", "value": 14, "unit": "days"}, {"measurement": "skin pathology: anagen entry (down growth of the follicle and hypodermal thickening)", "setting": "[1]; topical, 20 μM, vehicle animals remained in telogen", "value": "entered an accelerated anagen at 8 weeks"}, {"measurement": "time of treatment to pigmentation and hair growth, indicative of entry into anagen", "setting": "[1]; topical, 20 μM, vehicle control showed none even after 12 days", "value": 8, "unit": "days"}, {"measurement": "time to beginning of hair cycle acceleration (time to observed phenotype)", "setting": "[1]; topical, at least 6 pairs of animals, vehicle vs compound", "value": "3 to 5", "unit": "days"}, {"measurement": "Ldh enzyme activity in interfollicular epidermis", "setting": "Ldh; topical application for 48 hours during telogen", "value": "increased Ldh activity in the interfollicular epidermis; also recorded: also seen in interfollicular epidermis"}, {"measurement": "Ldh enzyme activity in HFSCs", "setting": "Ldh; topically treated animals", "value": "strong activity in HFSCs"}]}]}
